For assay [1], the system named is collagen-induced platelet aggregation. The following applies: cited from earlier work.
The test system is the same in assay [2]. Description: Inhibitory activity for platelet aggregation (collagen-induced, human platelet rich plasma). The class given is cell-based. Conditions: human PRP, read-out: Inhibition of collagen-induced platelet aggregation, IC50. The method, then: Inhibitory Activity for Platelet Aggregation
Human blood was collected in the presence of 3.13% sodium citrate as an anticoagulant in a volume 1/10 the blood volume. The collected blood was centrifuged at 180×g for 10 minutes so as to separate the upper layer; i.e., platelet rich plasma (PRP) from the blood. The remaining lower layer was further centrifuged at 1,600×g for 10 minutes, and platelet poor plasma ([…]); i.e., the thus-obtained upper layer, was collected. A solution (1 μL) of the compound of the Examples was added to PRP (200 μL), and the mixture was allowed to stand at 37° C. for 2 minutes. Subsequently, collagen (2 μL) was added to the resultant mixture so as to induce platelet aggregation. Percentage of platelet aggregation was measured using PAM-12C (SSR Engineering). Optical transmittance of PPP was employed as the value reflecting the state in which 100% aggregation occurred. Percent of platelet aggregation values of PRP were determined at a series of concentrations of each Example compound and IC50 of each compound was calculated.

The next assay has as its target T1, Cyclooxygenase-1 (COX-1) (Ovis aries, UniProt P05979).
T1 construct: purchased Cayman Chemical Company 560101
T1 sequence (P05979 25-600): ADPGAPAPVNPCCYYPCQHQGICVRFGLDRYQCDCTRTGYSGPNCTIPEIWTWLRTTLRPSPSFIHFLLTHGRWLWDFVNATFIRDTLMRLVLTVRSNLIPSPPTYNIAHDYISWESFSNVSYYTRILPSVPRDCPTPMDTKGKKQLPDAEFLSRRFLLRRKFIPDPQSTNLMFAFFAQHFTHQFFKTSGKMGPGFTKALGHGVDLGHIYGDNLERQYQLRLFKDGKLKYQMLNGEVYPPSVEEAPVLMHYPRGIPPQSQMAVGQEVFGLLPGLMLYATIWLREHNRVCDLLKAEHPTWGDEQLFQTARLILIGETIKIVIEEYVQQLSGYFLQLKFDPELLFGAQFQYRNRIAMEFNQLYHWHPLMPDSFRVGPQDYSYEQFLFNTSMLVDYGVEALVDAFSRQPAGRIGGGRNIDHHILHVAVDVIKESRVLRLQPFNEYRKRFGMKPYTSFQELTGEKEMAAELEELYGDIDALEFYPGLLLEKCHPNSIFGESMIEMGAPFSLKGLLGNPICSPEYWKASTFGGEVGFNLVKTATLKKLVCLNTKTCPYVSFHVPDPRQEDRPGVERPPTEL
Description: COX Inhibitor Screening Assay Kit, COX-1. The class given is biochemical. The following applies: 50 μM compound; read-out: Inhibitory effect against COX-1 at 50 μM (% inhibition). How it is done: (§1) Inhibitory Effects on Cyclooxygenase-1 (COX-1) and Cyclooxygenase-2 (COX-2)
(§2) Inhibitory activity against COX-1 and COX-2 of the compounds produced in the Examples was measured by use of a COX Inhibitor Screening Assay Kit (product of Cayman Chemical Company, Catalog Nos. 560101 and 560121).
(§3) Before starting the measurement, reaction buffer, heme, arachidonic acid, SnCl2, EIA buffer, washing buffer, prostaglandin (PG) screening EIA standard, PG screening acetylcholine esterase (AchE), tracer (chromogenic enzyme […] conjugate), and PG screening EIA antiserum were prepared ready for use.
(§4) (1) Production of PGF2α in the presence of COX-1 or COX-2
(§5) A reaction mixture containing the compound of the Examples (50 μM) and COX-1 or COX-2 was allowed to stand at 37° C. for 10 minutes. Arachidonic acid ([…]) was added thereto, and the resultant mixture was further allowed to stand at 37° C. for 2 minutes. 1N-Hydrochloric acid (50 μL) was added to the reaction mixture, to thereby stop the reaction. SnCl2 solution (100 μL) was added thereto, and the resultant mixture was allowed to stand at room temperature for 5 minutes.
(§6) (2) Quantitative Determination of PGF2α using ELISA
(§7) Antiserum (rabbit anti-PGF2α antibody, 50 μL) was added to the wells of 96 well plate that had been coated with mouse anti-rabbit IgG. A solution of PGF2α-containing mixture obtained above (2000-fold diluted, 50 μL) and AchE tracer (50 μL) were added to the well in this order, and the mixture was allowed to stand at room temperature for 18 hours. The wells were washed 5 times with the washing buffer to remove an excessive AchE tracer, and Ellman reagent (200 μL) was added. After leaving the plate in a dark room for 60 minutes, absorbance was measured at 405 nm.
(§8) (3) Calculation of Inhibitory Activity of the Compound of the Examples
(§9) A calibration curve was obtained by use of the PG screening EIA standard, and the production amount of PGF2α was determined from the absorbance above. Percent inhibition against COX-1 or COX-2 at 50 μM of the compound of the Examples was calculated.

In another assay the target is T2, Cyclooxygenase-2 (COX-2) (Homo sapiens, UniProt P35354).
T2 construct: purchased Cayman Chemical Company 560121
T2 sequence (P35354 18-604): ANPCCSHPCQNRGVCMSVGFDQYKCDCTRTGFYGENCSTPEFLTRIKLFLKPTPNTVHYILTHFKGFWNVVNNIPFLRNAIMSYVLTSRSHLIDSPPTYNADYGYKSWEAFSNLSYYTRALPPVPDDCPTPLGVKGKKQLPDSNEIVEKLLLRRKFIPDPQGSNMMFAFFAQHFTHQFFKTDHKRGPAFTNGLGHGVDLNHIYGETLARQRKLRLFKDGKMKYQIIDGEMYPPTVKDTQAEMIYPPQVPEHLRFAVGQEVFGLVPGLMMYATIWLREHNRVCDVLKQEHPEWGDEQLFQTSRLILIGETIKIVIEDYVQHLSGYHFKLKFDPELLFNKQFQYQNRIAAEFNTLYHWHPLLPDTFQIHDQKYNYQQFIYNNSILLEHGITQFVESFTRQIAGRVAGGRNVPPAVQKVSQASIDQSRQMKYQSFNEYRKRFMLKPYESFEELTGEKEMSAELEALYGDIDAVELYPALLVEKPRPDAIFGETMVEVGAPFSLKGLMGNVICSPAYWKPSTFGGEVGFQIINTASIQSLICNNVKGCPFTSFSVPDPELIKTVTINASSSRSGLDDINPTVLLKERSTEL
Description: COX Inhibitor Screening Assay Kit, COX-2. The following applies: 50 μM compound; read-out: Inhibitory effect against COX-2 at 50 μM (% inhibition). The class given is biochemical. The method, then:
as §1, §2, §3, §4, §5, §6, §7, §8, §9

The next assay relates to COX. Conditions: background art; cited from earlier work.

SMILES strings stand for the structures. Where a name gives a salt, the structure may show the parent alone. Read-outs that look alike come from different tables or passages of the source.

On to `CS(=O)(=O)c1ccc(-c2cc(C#N)nn2-c2ccc(F)cc2)cc1` [Compound (A)], for which, in assay [1] (prior-art compound, background art, read-out: IC50 value against collagen-induced platelet aggregation), the IC50 (as a rule, the concentration needed to halve the response being measured) is 5.3 µM.

With `COc1ccc(-c2nc(C(=O)N3CCN(C)CC3)cn2-c2ccc(F)cc2)cn1` [Example 6, 1-[1-(4-Fluorophenyl)-2-(6-methoxy-3-pyridyl)-1H-imidazole-4-carbonyl]-4-methylpiperazine], in assay [2], the IC50 was 0.33 µM. Moreover, the inhibition (as a rule, the change of the read-out against control, counted positive when it falls) at 50 µM on Cyclooxygenase-1 (COX-1) was found to be 28.4%; at Cyclooxygenase-2 (COX-2), 23.4%.

Turning to `CN1CCN(C(=O)c2nc(-c3ccccc3)c(-c3ccccc3)o2)CC1` [Example 25, 1-(4,5-diphenyloxazole-2-carbonyl)-4-methylpiperazine], the IC50 in assay [2] came to 0.71 µM. In addition, the inhibition at 50 µM on Cyclooxygenase-1 (COX-1) was 3.1%; at Cyclooxygenase-2 (COX-2) it was -8.7%.

Take `Cc1ccc(-n2cc(C(=O)N3CCN(C)C(=O)C3)nc2-c2ccc(C)nc2)cc1` [Example 32, 1-[1-(4-Methylphenyl)-2-(6-methyl-3-pyridyl)-1H-imidazole-4-carbonyl]-4-methyl-3-oxopiperazine]: the IC50 in assay [2] was found to be 0.41 µM. Further, the inhibition at 50 µM is 5.6% at Cyclooxygenase-1 (COX-1) and -2.2% at Cyclooxygenase-2 (COX-2).

Turning to `COc1ccc(-n2nc(C(=O)N3CCN(C)CC3)nc2-c2ccc(C)cc2)cn1` [Example 37, 1-[1-(6-Methoxy-3-pyridyl)-5-(4-methylphenyl)-1H-1,2,4-triazole-3-carbonyl]-4-methylpiperazine hydrochloride], the IC50 in assay [2] was 0.27 µM. The inhibition at 50 µM on Cyclooxygenase-1 (COX-1) is -3.2%; on Cyclooxygenase-2 (COX-2) it was -0.8%.

Regarding `COc1ccc(-c2nc(C(=O)N3CCN(C)CC3)nn2-c2ccc(C)cc2)cn1` [Example 38, 1-[5-(6-Methoxy-3-pyridyl)-1-(4-methylphenyl)-1H-1,2,4-triazole-3-carbonyl]-4-methylpiperazine hydrochloride], the IC50 in assay [2] turned out to be 0.32 µM. Further, the results for the inhibition at 50 µM at Cyclooxygenase-1 (COX-1) and at Cyclooxygenase-2 (COX-2) were 3.5% and 10.7%, respectively.

For the compound `COc1ccc(-c2nc(C(=O)N3CCC(F)(F)CC3)cn2-c2ccccn2)cn1` [Example 63, 1-[2-(6-Methoxy-3-pyridyl)-1-(2-pyridyl)-1H-imidazole-4-carbonyl]-4,4-difluoropiperidine], in assay [2], the IC50 turned out to be 0.02 µM. For the same compound, the figures for the inhibition at 50 µM on Cyclooxygenase-1 (COX-1) and on Cyclooxygenase-2 (COX-2) were 3.4% and 7.5%, respectively.

As to `COc1ccc(-c2nc(C(=O)N3CCC(F)CC3)cn2-c2ccccn2)cn1` [Example 64, 1-[2-(6-Methoxy-3-pyridyl)-1-(2-pyridyl)-1H-imidazole-4-carbonyl]-4-fluoropiperidine], the IC50 in assay [2] turned out to be 0.06 µM. The inhibition at 50 µM on Cyclooxygenase-1 (COX-1) was -1.4%; at Cyclooxygenase-2 (COX-2), 4.5%.

Consider `COc1ccc(-c2nc(C(=O)N3CCC(OC)CC3)cn2-c2ccccn2)cn1` [Example 65, 1-[2-(6-Methoxy-3-pyridyl)-1-(2-pyridyl)-1H-imidazole-4-carbonyl]-4-methoxypiperidine], for which the IC50 in assay [2] is 0.12 µM.

As for `COc1ccc(-n2nc(C(=O)N3CCN(C)CC3)nc2-c2ccccn2)cn1` [Example 66, 1-[1-(6-Methoxy-3-pyridyl)-5-(2-pyridyl)-1H-1,2,4-triazole-3-carbonyl]-4-methylpiperazine], in assay [2], the IC50 is 0.7 µM.

`COc1ccc(-n2nc(C(=O)N3CCC(F)(F)CC3)nc2-c2ccc(C#N)cn2)cn1` [Example 67, 1-[5-(5-Cyano-2-pyridyl)-1-(6-methoxy-3-pyridyl)-1H-1,2,4-triazole-3-carbonyl]-4,4-difluoropiperidine]: in assay [2], the IC50 was determined as 0.22 µM.

Take `COc1ccc(-n2nc(C(=O)N3CCC(F)(F)CC3)nc2-c2ccc(F)cn2)cn1` [Example 71, 1-[5-(5-Fluoro-2-pyridyl)-1-(6-methoxy-3-pyridyl)-1H-1,2,4-triazole-3-carbonyl]-4,4-difluoropiperidine]: the IC50 in assay [2] worked out at 0.19 µM. Also, at Cyclooxygenase-1 (COX-1), the inhibition at 50 µM came to 35.2%.

With `COc1ccc(-c2nc(C(=O)N3CCC[C@@H](F)C3)cn2-c2ccccn2)cn1` [Example 72, (3R)-1-[2-(6-Methoxy-3-pyridyl)-1-(2-pyridyl)-1H-imidazole-4-carbonyl]-3-fluoropiperidine], in assay [2], the IC50 came out at 0.11 µM. On Cyclooxygenase-1 (COX-1), the inhibition at 50 µM stood at 39%.

In the case of `COc1ccc(-n2nc(C(=O)N3CCC(F)(F)CC3)nc2-c2ccc(C)cn2)cn1` [Example 74, 1-[1-(6-Methoxy-3-pyridyl)-5-(5-methyl-2-pyridyl)-1H-1,2,4-triazole-3-carbonyl]-4,4-difluoropiperidine], the IC50 in assay [2] was determined as 0.021 µM. Besides, the inhibition at 50 µM at Cyclooxygenase-1 (COX-1) is 46.9%.

Regarding `COc1ccc(-c2cc(C(F)F)nn2-c2ccc(S(N)(=O)=O)cc2)cc1F` [compound (B)], the “platelet aggregation inhibitory activity” value in assay [1] (compared with inhibitory activity against COX-2) is given as “not so strong compared with its inhibitory activity against COX-2”.

`COc1ccc(-c2nc(C(=O)N3CCN(C)CC3)sc2-c2ccc(OC)cc2)cc1` [thiazole derivative (C)]: in the assay with COX, the COX inhibiting effect result is listed as “inhibits COX”.

(Values after patent US20060189591A1, “Five-membered heterocyclic derivative” (DAIICHI PHARMACEUTICAL CO., LTD., priority 2003, published 2006).)
